Active and inactive are the calls of the source. The rule behind the calls is not given here.

A short description of data set [1]: Antiproliferative activity against human […] cells assessed as reduction in cell viability incubated for 24 hrs by CCK-8 assay. It counts as functional, cell-based. (In general: Tetrazolium dyes change colour on reduction, which living cells bring about.)
The test system of another data set is LoVo. As to the kind of experiment: Antiproliferative activity against human LoVo cells assessed as reduction in cell viability incubated for 24 hrs by CCK-8 assay. It counts as functional, cell-based.
For another data set, the system named is SW480. Description: Antiproliferative activity against human SW480 cells assessed as reduction in cell viability incubated for 24 hrs by CCK-8 assay. It counts as functional, cell-based. The conditions noted are these: SW480, 24 h.
The next data set has as its system MCF7. As to the kind of experiment: Antiproliferative activity against human MCF7 cells assessed as reduction in cell viability incubated for 24 hrs by CCK-8 assay. It counts as functional, cell-based. The following applies: MCF7, 24 h.
Another data set concerns OVCAR-3. Description: Antiproliferative activity against human OVCAR-3 cells assessed as reduction in cell viability incubated for 24 hrs by CCK-8 assay. It counts as functional, cell-based. The following applies: OVCAR-3, 24 h.
The next data set concerns L02. Description: Cytotoxicity against human L02 cells assessed as reduction in cell viability incubated for 8 hrs by CCK-8 assay. The format is toxicity, cell-based. The following applies: l02, 8 h.
In another data set the test system is HepG2. Description: Antiproliferative activity against human HepG2 cells assessed as reduction in cell viability incubated for 24 hrs by CCK-8 assay. It counts as functional, cell-based. The conditions noted are these: HepG2, 24 h.
The next data set deals with NCI-H1650. Description: Antiproliferative activity against human NCI-H1650 cells assessed as reduction in cell viability incubated for 24 hrs by CCK-8 assay. The format is functional, cell-based. The following applies: NCI-H1650, 24 h.
In the next data set the test system is NCI-H1299. As to the kind of experiment: Antiproliferative activity against human NCI-H1299 cells assessed as reduction in cell viability incubated for 24 hrs by CCK-8 assay. The format is functional, cell-based. The following applies: NCI-H1299, 24 h.
Data set [2] concerns NCI-H460. As to the kind of experiment: Antiproliferative activity against human NCI-H460 cells assessed as reduction in cell viability incubated for 24 hrs by CCK-8 assay. The conditions noted are these: NCI-H460, 24 h. It counts as functional, cell-based.
A further data set concerns AGS. As to the kind of experiment: Antiproliferative activity against human AGS cells assessed as reduction in cell viability incubated for 24 hrs by CCK-8 assay. It counts as functional, cell-based.
Another data set relates to MDA-MB-231. Description: Antiproliferative activity against human MDA-MB-231 cells assessed as reduction in cell viability incubated for 24 hrs by CCK-8 assay. The conditions noted are these: MDA-MB-231, 24 h. The format is functional, cell-based.
For a further data set, the system named is U-251. As to the kind of experiment: Antiproliferative activity against human U-251 cells assessed as reduction in cell viability incubated for 24 hrs by CCK-8 assay. The format is functional, cell-based. The following applies: U-251, 24 h.
The subject of the next data set is HONE1 cell line. As to the kind of experiment: Antiproliferative activity against human HONE1 cell line assessed as reduction in cell viability incubated for 24 hrs by CCK-8 assay. The format is functional, cell-based. The conditions noted are these: HONE1, 24 h.
A further data set relates to A549. As to the kind of experiment: Antiproliferative activity against human A549 cells assessed as reduction in cell viability incubated for 24 hrs by CCK-8 assay. The conditions noted are these: A549, 24 h. It counts as functional, cell-based.
The test system of another data set is SGC-7901. Description: Antiproliferative activity against human SGC-7901 cells assessed as reduction in cell viability incubated for 24 hrs by CCK-8 assay. It counts as functional, cell-based. The following applies: SGC-7901, 24 h.
Data set [3] relates to NCI-H460. As to the kind of experiment: Cytotoxicity against human NCI-H460 cells assessed as reduction in cell viability at 10 uM incubated for 8 hr by CCK-8 assay. The format is functional, cell-based.
Data set [4] is described as follows: Antiproliferative activity against human NCI-H1688 cells assessed as reduction in cell viability incubated for 24 hrs by CCK-8 assay. The format is functional, cell-based. The conditions noted are these: NCI-H1688, 24 h.

For `C[S+]([O-])CCCCN=C=S` (stereo not given) [SULFORAPHANE], the IC50 in data set [1] was 25.1 µM; with LoVo, 18.5 µM; with SW480 it was 17.8 µM; with MCF7, 23.1 µM; in the data set on OVCAR-3, 18.4 µM; in the data set with HepG2 it was 21 µM. Also, the IC50 with NCI-H1650 was 22 µM; with NCI-H1299 it was 11.6 µM; with NCI-H460 [2], 21.2 µM; with AGS, 18.4 µM; in the data set with MDA-MB-231 it was 22.2 µM; in the data set on U-251, 22.5 µM. The half-inhibitory concentration (IC50) in the data set with HONE1 cell line is 19.3 µM; with A549 it was 20.2 µM; in the data set with SGC-7901, 24.9 µM; in data set [4] it was 16.8 µM. Also, the Activity result in the data set on L02 is reported as “Non-Toxic”. Further, the outcome in the data set on NCI-H460 [3] was inactive.

Consider `C=CCc1ccc(O)c(-c2cc(CC=C)ccc2OCCSCCCCN=C=S)c1`, for which the Activity result in the data set with L02 is recorded as “Non-Toxic”. Besides, the outcome in the data set with NCI-H460 [3] was inactive.

Turning to `C=CCc1ccc(O)c(-c2cc(CC=C)ccc2O)c1` [MAGNOLOL], the IC50 (in data set [1]; with LoVo; with SW480; in the data set on MCF7; in the data set on OVCAR-3; in the data set on HepG2) was greater than 45 µM each time. In addition, the IC50 in the data set on NCI-H1650, in the data set with NCI-H1299, in the data set on NCI-H460 [2], with AGS, with MDA-MB-231 and in the data set on U-251 was greater than 45 µM throughout. Besides, the IC50 (in the data set on HONE1 cell line; in the data set with A549; in the data set on SGC-7901; in data set [4]) was greater than 45 µM throughout. Moreover, in the data set on L02, the Activity result is “Non-Toxic”. Further, the outcome in the data set with NCI-H460 [3] was inactive.

Consider `C=CCc1ccc(O)c(-c2cc(CC=C)ccc2OCCS(=O)(=O)CCCCN=C=S)c1`, for which the Activity result in the data set on L02 is on record as “Non-Toxic”. In addition, the result in the data set with NCI-H460 [3] was inactive.

By IC50 is commonly meant the midpoint of a concentration-inhibition curve.

These data come from ChEMBL document CHEMBL5233246, “CT1-3, a novel magnolol-sulforaphane hybrid suppresses tumorigenesis through inducing mitochondria-mediated apoptosis and inhibiting epithelial mesenchymal transition” (Eur J Med Chem, 2020).
